Laboratory results taken from ChEMBL document CHEMBL1201862, “PubChem BioAssay data set” (2004).
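Each compound was tested at five concentrations against cells in 96-well plates for 48 hours. GI50 is the concentration that inhibits growth by half.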 Calls of active or inactive are those of the source. Rule as the data show it: active = GI50 up to about 1.1 µM and inactive = higher.

Experiments:
Experiment in all cases: inhibition of tumour cell growth, NCI panel, 48 h
[1] = tested on: ACHN
[2] = tested on: UO-31
[3] = tested on: HCT-15
[4] = tested on: CAKI-1
[5] = tested on: HOP-92
[6] = tested on: NCI-H23
[7] = tested on: A549
[8] = tested on: HCT-116
[9] = tested on: RPMI-8226
[10] = tested on: UACC-257
[11] = tested on: Hs-578T
[12] = tested on: UACC-62
[13] = tested on: OVCAR-5
[14] = tested on: SF-539
[15] = tested on: T47D
[16] = tested on: DU-145
[17] = tested on: NCI/ADR-RES
[18] = tested on: TK-10
[19] = tested on: BT-549

SMILES	GI50 [1]	GI50 [2]	GI50 [3] [µM]	GI50 [4]	GI50 [5]	GI50 [6]	GI50 [7]	GI50 [8]	GI50 [9]	GI50 [10]	GI50 [11]	GI50 [12]	GI50 [13]	GI50 [14]	GI50 [15]	GI50 [16]	GI50 [17]	GI50 [18]	GI50 [19]
Cc1cc2ccccc2c[n+]1CC(=O)CC([O-])(C(F)(F)F)C(F)(F)F	> 100 µM (inactive)	> 100 µM (inactive)	> 100	> 100 µM (inactive)	58.1 µM (inactive)	87.5 µM (inactive)	> 100 µM (inactive)	> 100 µM (inactive)	69.7 µM (inactive)	> 100 µM (inactive)	> 100 µM (inactive)	> 100 µM (inactive)	> 100 µM (inactive)	> 100 µM (inactive)	> 100 µM (inactive)	> 100 µM (inactive)	> 100 µM (inactive)	–	–
CCCCCCCCCC(=O)CC(=O)c1c(O)cc(O)cc1O	27 µM (inactive)	15.5 µM (inactive)	18.2	31.1 µM (inactive)	20 µM (inactive)	17.3 µM (inactive)	25.6 µM (inactive)	24.4 µM (inactive)	16.1 µM (inactive)	23.4 µM (inactive)	18.5 µM (inactive)	–	19.4 µM (inactive)	19.5 µM (inactive)	34.7 µM (inactive)	22.4 µM (inactive)	16.6 µM (inactive)	30.4 µM (inactive)	–
CC(=O)Nc1ccc(N2C(=O)/C(=C\c3cccc(Oc4ccccc4)c3)S(=O)(=O)C2c2ccccc2)cc1 (configuration not stated)	74.1 µM (inactive)	29.7 µM (inactive)	> 100	> 100 µM (inactive)	55.2 µM (inactive)	> 100 µM (inactive)	> 100 µM (inactive)	37.5 µM (inactive)	20.4 µM (inactive)	> 100 µM (inactive)	–	83.2 µM (inactive)	> 100 µM (inactive)	24.3 µM (inactive)	35.9 µM (inactive)	39.1 µM (inactive)	37.2 µM (inactive)	> 100 µM (inactive)	> 100 µM (inactive)
CCCNc1ncnc2c1ncn2C	51.6 µM (inactive)	85.1 µM (inactive)	86.9	36.1 µM (inactive)	37.6 µM (inactive)	35.6 µM (inactive)	> 100 µM (inactive)	> 100 µM (inactive)	20.6 µM (inactive)	> 100 µM (inactive)	–	45.1 µM (inactive)	–	34.2 µM (inactive)	44.4 µM (inactive)	85.3 µM (inactive)	68.4 µM (inactive)	> 100 µM (inactive)	–
C/C(=N/NC(=S)Nc1ccccc1Cl)c1cccc(/C(C)=N\NC(=S)Nc2ccccc2Cl)n1	55.5 µM (inactive)	44 µM (inactive)	15	> 100 µM (inactive)	> 100 µM (inactive)	54.7 µM (inactive)	29.6 µM (inactive)	16.1 µM (inactive)	> 100 µM (inactive)	67 µM (inactive)	> 100 µM (inactive)	> 100 µM (inactive)	> 100 µM (inactive)	16.6 µM (inactive)	> 100 µM (inactive)	> 100 µM (inactive)	> 100 µM (inactive)	49.1 µM (inactive)	–
CCOC(=O)c1c(SCCCN2CCCCC2)n(-c2ccccc2)c(=S)n(-c2ccccc2)c1=O	20.6 µM (inactive)	15.5 µM (inactive)	17.4	–	14.4 µM (inactive)	18.6 µM (inactive)	17.3 µM (inactive)	12.4 µM (inactive)	6.67 µM (inactive)	–	20.9 µM (inactive)	4.28 µM (inactive)	17.7 µM (inactive)	14.8 µM (inactive)	16.7 µM (inactive)	16.4 µM (inactive)	–	20.6 µM (inactive)	–
COc1ccc(CC2c3c(cc(OC)c(OC)c3OC)CCN2C)cc1OC (configuration not stated)	> 100 µM (inactive)	> 100 µM (inactive)	> 100	> 100 µM (inactive)	–	> 100 µM (inactive)	> 100 µM (inactive)	> 100 µM (inactive)	> 100 µM (inactive)	> 100 µM (inactive)	–	–	> 100 µM (inactive)	> 100 µM (inactive)	–	–	–	> 100 µM (inactive)	–
O=C(NNCC(O)COc1ccccc1)c1ccccc1 (configuration not stated)	> 100 µM (inactive)	> 100 µM (inactive)	> 100	> 100 µM (inactive)	> 100 µM (inactive)	> 100 µM (inactive)	> 100 µM (inactive)	> 100 µM (inactive)	> 100 µM (inactive)	> 100 µM (inactive)	–	> 100 µM (inactive)	> 100 µM (inactive)	> 100 µM (inactive)	> 100 µM (inactive)	> 100 µM (inactive)	> 100 µM (inactive)	> 100 µM (inactive)	–
C=C[C@@]1(C)CCC2(O)C(CCC3C2(C)CCC[C@@]3(C)COC(=O)CC(=O)OC)C1 (some centres not stated)	40.1 µM (inactive)	22.6 µM (inactive)	18.4	> 100 µM (inactive)	–	20.6 µM (inactive)	17.6 µM (inactive)	18 µM (inactive)	19.8 µM (inactive)	20.2 µM (inactive)	–	17.2 µM (inactive)	20.1 µM (inactive)	19.6 µM (inactive)	–	–	–	18.7 µM (inactive)	–
COP(=O)(OC)/C(=C\c1cn(C(c2ccccc2)(c2ccccc2)c2ccccc2)cn1)NC(C)=O	> 100 µM (inactive)	> 100 µM (inactive)	> 100	> 100 µM (inactive)	> 100 µM (inactive)	> 100 µM (inactive)	53.7 µM (inactive)	58.5 µM (inactive)	–	62.5 µM (inactive)	> 100 µM (inactive)	> 100 µM (inactive)	> 100 µM (inactive)	> 100 µM (inactive)	> 100 µM (inactive)	> 100 µM (inactive)	> 100 µM (inactive)	> 100 µM (inactive)	–
CC(=O)c1ccc(Br)cc1NC1=CC(=O)c2ncccc2C1=O	3.6 µM (inactive)	3.86 µM (inactive)	2.69	7.59 µM (inactive)	12.2 µM (inactive)	2 µM (inactive)	2.4 µM (inactive)	1.9 µM (inactive)	2.18 µM (inactive)	1.48 µM (inactive)	17.1 µM (inactive)	2.58 µM (inactive)	13.1 µM (inactive)	2.56 µM (inactive)	3.85 µM (inactive)	4.36 µM (inactive)	3.9 µM (inactive)	17.6 µM (inactive)	–
Nc1ncnc2c1ncn2C1CCC(CP(=O)(O)O)C1 (configuration not stated)	> 100 µM (inactive)	> 100 µM (inactive)	> 100	–	–	> 100 µM (inactive)	> 100 µM (inactive)	> 100 µM (inactive)	> 100 µM (inactive)	> 100 µM (inactive)	> 100 µM (inactive)	> 100 µM (inactive)	> 100 µM (inactive)	> 100 µM (inactive)	> 100 µM (inactive)	> 100 µM (inactive)	> 100 µM (inactive)	> 100 µM (inactive)	–
CC1(C)SCc2nc3ccccc3n21	> 100 µM (inactive)	> 100 µM (inactive)	> 100	> 100 µM (inactive)	> 100 µM (inactive)	> 100 µM (inactive)	> 100 µM (inactive)	> 100 µM (inactive)	> 100 µM (inactive)	> 100 µM (inactive)	> 100 µM (inactive)	> 100 µM (inactive)	> 100 µM (inactive)	> 100 µM (inactive)	> 100 µM (inactive)	> 100 µM (inactive)	> 100 µM (inactive)	> 100 µM (inactive)	–
